Data taken from patent publication US20260347372A1, “SMALL MOLECULE INHIBITORS OF KRAS G12D MUTANT” (MERCK SHARP & DOHME LLC, priority 2023, published 2026).

Assays:
KRAS G12C [1] = molecular target: T1, KRAS G12C (Homo sapiens, UniProt P01116, G12C); test: SOS-catalyzed nucleotide exchange assay, KRAS G12C (Procedure B; Example 14); format: biochemical; conditions: 1 hour compound incubation, SOS1 and GMPPNP 30 minutes, read-out: KRAS G12C GNE IC50
T1 construct: KRAS G12C (amino acids 1-169, N-terminal His-tag); made in house; host or cells: E. coli
T1 sequence (P01116 with tags, fused parts or gaps isoform P01116-2 G12C): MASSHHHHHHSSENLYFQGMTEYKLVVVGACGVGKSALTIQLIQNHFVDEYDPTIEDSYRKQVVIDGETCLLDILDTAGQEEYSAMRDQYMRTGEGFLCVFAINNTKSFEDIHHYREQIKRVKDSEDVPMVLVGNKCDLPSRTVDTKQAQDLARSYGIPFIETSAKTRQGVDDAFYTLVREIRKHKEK
Procedure: (§1) Procedure for SOS-Catalyzed Nucleotide Exchange Assay for KRAS-G12C/D/V/WT (Procedure B)
(§2) Recombinant KRAS G12C (amino acids 1-169, SEQ ID NO:9), KRAS G12D (amino acids 1-169, SEQ ID NO:10), KRAS G12V (amino acids 1-169, SEQ ID NO:11), KRAS WT (amino acids 1-169, SEQ ID NO:12) and SOS1 (amino acids 564-1049, SEQ ID NO:13) proteins were expressed in E. coli and purified by affinity chromatography. To prepare each BODIPY™ FL GDP-bound KRAS protein, 50 μM KRAS proteins were incubated with 0.5 mM BODIPY™ FL GDP (Invitrogen, G22360) in a loading buffer (20 mM Tris-HCl pH 7.5, 50 mM NaCl, 1 mM DTT and 2.5 mM EDTA) for 1 hour on ice. After the incubation, MgCl2 was added to a final concentration of 10 mM, followed by an incubation at room temperature for 30 minutes. The mixtures were allowed to pass through a NAP-5 column to remove free nucleotides and purified BODIPY™ FL GDP-bound KRAS G12C, G12D, G12V and WT proteins were used for compound evaluation.
(§3) The inhibitory activity of compounds on recombinant KRAS is measured by the displacement of the bound BODIPY™ GDP. […] Displacement of BODIPY™ FL GDP by Guanosine-5′-[(β,γ)-imido]triphosphate, Tetralithium salt (GMPPNP) was measured by calculating the ratio of fluorescence intensities of BODIPY™ FL before and after the exchange reaction. […] Dose response curves were analyzed using a 4-parameter logistic model to calculate IC50 values. […]

KRAS WT [2] = molecular target: T2, KRAS WT (Homo sapiens, UniProt P01116); test: SOS-catalyzed nucleotide exchange assay, KRAS WT (Procedure B; Example 14); format: biochemical; parameters: KRAS WT (amino acids 1-169, N-terminal His-tag); made in house; host or cells: E. coli; conditions: 1 hour compound incubation, SOS1 and GMPPNP 30 minutes, read-out: KRAS WT GNE IC50
Procedure: as §1, §2, §3
Target sequence in this assay (P01116 with tags, fused parts or gaps isoform P01116-2): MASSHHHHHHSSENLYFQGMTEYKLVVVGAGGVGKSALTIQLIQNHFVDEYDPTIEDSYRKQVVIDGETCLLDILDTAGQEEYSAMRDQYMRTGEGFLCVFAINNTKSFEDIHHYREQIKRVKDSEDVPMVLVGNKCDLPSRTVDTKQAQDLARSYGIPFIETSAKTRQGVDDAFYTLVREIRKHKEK

KRAS G12D [3] = molecular target: T3, KRAS G12D (Homo sapiens, UniProt P01116, G12D); test: SOS-catalyzed nucleotide exchange assay, KRAS G12D (Procedure B; Example 14); format: biochemical; parameters: KRAS G12D (amino acids 1-169, N-terminal His-tag); made in house; host or cells: E. coli; conditions: 1 hour compound incubation, SOS1 and GMPPNP 30 minutes, read-out: KRAS G12D GNE IC50
Procedure: as §1, §2, §3
Target sequence in this assay (P01116 with tags, fused parts or gaps isoform P01116-2 G12D): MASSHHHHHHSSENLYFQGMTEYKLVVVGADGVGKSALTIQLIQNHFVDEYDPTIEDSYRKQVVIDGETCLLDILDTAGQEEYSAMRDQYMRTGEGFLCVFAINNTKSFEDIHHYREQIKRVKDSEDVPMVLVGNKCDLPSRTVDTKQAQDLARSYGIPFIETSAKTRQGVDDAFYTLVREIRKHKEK

KRAS G12V [4] = molecular target: T4, KRAS G12V (Homo sapiens, UniProt P01116, G12V); test: SOS-catalyzed nucleotide exchange assay, KRAS G12V (Procedure B; Example 14); format: biochemical; parameters: KRAS G12V (amino acids 1-169, N-terminal His-tag); made in house; host or cells: E. coli; conditions: 1 hour compound incubation, SOS1 and GMPPNP 30 minutes, read-out: KRAS G12V GNE IC50
Procedure: as §1, §2, §3
Target sequence in this assay (P01116 with tags, fused parts or gaps isoform P01116-2 G12V): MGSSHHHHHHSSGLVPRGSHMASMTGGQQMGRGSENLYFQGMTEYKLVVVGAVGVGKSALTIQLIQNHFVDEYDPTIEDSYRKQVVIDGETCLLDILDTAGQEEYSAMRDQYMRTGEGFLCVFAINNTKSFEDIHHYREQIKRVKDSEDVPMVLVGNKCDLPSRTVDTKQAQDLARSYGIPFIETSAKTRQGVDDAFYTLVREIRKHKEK

KRAS G12D [5] = molecular target: T3, KRAS G12D; test: SOS-catalyzed nucleotide exchange assay, KRAS G12D (Procedure A); format: biochemical; conditions: guanine nucleotide exchange (GNE)
In short: (§4)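 Compounds were preincubated 60 min with a biotinylated RAS·Bodipy-GDP/Tb-streptavidin TR-FRET complex, and exchange was started with human SOS plus 3 mM GTP at RT. RAS/SOS: G12C 3 nM/40 nM, WT and G12D 1 nM/40 nM, all 60 min; G13D 1.25 nM/0 nM, 30 min. 520/495 ratio normalized to DMSO and saturating inhibitor, four-parameter fit.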
Target sequence in this assay (P01116 with tags, fused parts or gaps isoform P01116-2 G12D): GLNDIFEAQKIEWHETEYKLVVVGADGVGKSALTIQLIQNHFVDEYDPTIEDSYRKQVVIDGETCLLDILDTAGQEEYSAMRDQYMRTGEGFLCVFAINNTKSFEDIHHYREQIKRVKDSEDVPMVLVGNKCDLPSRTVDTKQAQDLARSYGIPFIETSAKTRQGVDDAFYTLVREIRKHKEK

KRAS WT [6] = molecular target: T2, KRAS WT; test: SOS-catalyzed nucleotide exchange assay, KRAS WT (Procedure A); format: biochemical; conditions: GNE
In short: as §4
Target sequence in this assay (P01116 with tags, fused parts or gaps isoform P01116-2): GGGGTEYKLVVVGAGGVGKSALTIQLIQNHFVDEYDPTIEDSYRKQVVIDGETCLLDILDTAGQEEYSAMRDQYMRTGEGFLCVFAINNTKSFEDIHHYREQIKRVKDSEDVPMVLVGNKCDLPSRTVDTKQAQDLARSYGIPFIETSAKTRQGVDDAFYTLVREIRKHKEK

KRAS G12C [7] = molecular target: KRAS G12C (Homo sapiens, UniProt P01116, C118S/C51S/C80L/G12C); test: SOS-catalyzed nucleotide exchange assay, KRAS G12C (Procedure A); format: biochemical; conditions: GNE
KRAS G12C (Homo sapiens, UniProt P01116, C118S/C51S/C80L/G12C), sequence (P01116 with tags, fused parts or gaps isoform P01116-2 G12C/C51S/C80L/C118S): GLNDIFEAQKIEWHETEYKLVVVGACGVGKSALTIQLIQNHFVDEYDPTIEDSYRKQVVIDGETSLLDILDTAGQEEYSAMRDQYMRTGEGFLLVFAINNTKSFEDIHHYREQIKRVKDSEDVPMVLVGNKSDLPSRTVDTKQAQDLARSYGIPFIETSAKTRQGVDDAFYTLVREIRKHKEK
In short: as §4

KRAS G12V [8] = molecular target: T4, KRAS G12V; test: SOS-catalyzed nucleotide exchange assay, KRAS G12V (Procedure A); format: biochemical; conditions: GNE
In short: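 Biotinylated KRAS G12V was loaded with Bodipy-GDP alongside Terbium-streptavidin to form a TR-FRET complex, which was preincubated with compounds for 60 minutes in 384-well plates. Human SOS protein and unlabeled GTP were then added for 90 minutes, giving final concentrations of 1.25 nM KRAS-G12V, 160 nM SOS and 3 mM GTP. The 520/495 nm emission ratio was read on an Envision.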
Target sequence in this assay (P01116 with tags, fused parts or gaps isoform P01116-2 G12V): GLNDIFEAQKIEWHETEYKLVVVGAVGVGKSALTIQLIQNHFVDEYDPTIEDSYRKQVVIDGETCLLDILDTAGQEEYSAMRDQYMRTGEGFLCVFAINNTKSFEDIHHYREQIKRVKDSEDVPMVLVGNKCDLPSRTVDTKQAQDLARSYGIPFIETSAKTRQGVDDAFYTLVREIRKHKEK

KRAS G13D = KRAS G13D (Homo sapiens, UniProt P01116, G13D); test: SOS-catalyzed nucleotide exchange assay, KRAS G13D (Procedure A); format: biochemical; conditions: GNE
KRAS G13D, sequence (P01116 with tags, fused parts or gaps isoform P01116-2 G13D): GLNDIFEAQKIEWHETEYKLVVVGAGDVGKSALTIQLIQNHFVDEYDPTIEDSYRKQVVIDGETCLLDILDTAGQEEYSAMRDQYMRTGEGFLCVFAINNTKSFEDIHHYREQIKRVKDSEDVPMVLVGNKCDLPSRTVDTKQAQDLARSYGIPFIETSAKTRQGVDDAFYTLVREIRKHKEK
In short: as §4

HRAS = HRAS (Homo sapiens, UniProt P01112); test: SOS-catalyzed nucleotide exchange assay, HRAS (Procedure A); format: biochemical; conditions: GNE
HRAS, sequence (P01112 with tags, fused parts or gaps): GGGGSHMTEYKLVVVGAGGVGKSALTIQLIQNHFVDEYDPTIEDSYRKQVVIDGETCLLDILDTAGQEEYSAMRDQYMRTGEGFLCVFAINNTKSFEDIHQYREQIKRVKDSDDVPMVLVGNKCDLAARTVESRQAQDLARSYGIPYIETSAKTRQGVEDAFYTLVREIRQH
In short: as §4

NRAS = NRAS (Homo sapiens, UniProt P01111); test: SOS-catalyzed nucleotide exchange assay, NRAS (Procedure A); format: biochemical; conditions: GNE
NRAS, sequence (P01111 with tags, fused parts or gaps): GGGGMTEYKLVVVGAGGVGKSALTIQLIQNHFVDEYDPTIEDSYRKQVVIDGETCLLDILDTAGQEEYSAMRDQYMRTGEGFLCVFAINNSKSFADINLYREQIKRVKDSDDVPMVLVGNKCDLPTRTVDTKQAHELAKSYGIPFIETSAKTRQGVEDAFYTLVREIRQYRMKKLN
In short: as §4

PANC08.13 cells = molecular target: T5, PANC08.13 cells (Homo sapiens, UniProt P01116, G12D); test: Cellular phospho-ERK assay, PANC08.13 cells (KRAS G12D); format: cell-based; conditions: 2 hours, read-out: PANCO 813 pERK IC50
T5 construct: p-ERK/total ERK AlphaSureFire read-out
T5 sequence (P01116 1-188 isoform P01116-2 G12D): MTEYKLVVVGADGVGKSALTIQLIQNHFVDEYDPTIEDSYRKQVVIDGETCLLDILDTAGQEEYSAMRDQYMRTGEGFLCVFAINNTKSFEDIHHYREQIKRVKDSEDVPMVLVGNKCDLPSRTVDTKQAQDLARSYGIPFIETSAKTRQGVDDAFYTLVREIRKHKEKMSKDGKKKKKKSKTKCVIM
In short: (§5)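 PANC08.13 or AsPC-1 cells (homozygous KRAS G12D) were seeded overnight, then treated for 2 h at 37 °C with a 10-point 1:3 titration from 30 μM. Lysates were assayed by AlphaLISA SureFire for p-ERK and total ERK. IC50 came from a 4-parameter fit of the p-ERK/total ERK ratio.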

AsPC-1 cells = molecular target: T6, AsPC-1 cells (Homo sapiens, UniProt P01116, G12D); test: Cellular phospho-ERK assay, AsPC-1 cells (KRAS G12D); format: cell-based; conditions: 2 hours, read-out: AsPC1 pERK IC50
T6 construct: p-ERK/total ERK AlphaSureFire read-out
T6 sequence (P01116 1-188 isoform P01116-2 G12D): as above
In short: as §5

Row | SMILES | IC50 (KRAS G12C [1]) [nM] | IC50 (KRAS WT [2]) [nM] | IC50 (KRAS G12D [3]) [nM] | IC50 (KRAS G12V [4]) [nM] | IC50 (KRAS G12D [5]) [nM] | IC50 (KRAS WT [6]) [nM] | IC50 (KRAS G12C [7]) [nM] | IC50 (KRAS G12V [8]) [nM] | IC50 (KRAS G13D) [nM] | IC50 (HRAS) [nM] | IC50 (NRAS) [nM] | IC50 (PANC08.13 cells) [nM] | IC50 (AsPC-1 cells) [nM]
1 | FC(F)c1ccc2[nH]ncc2c1-c1nccc2c1sc1nc(OC[C@@]34CCCN3C[C@H](F)C4)nc(N3C[C@H]4CC[C@@H](C3)N4)c12 [Ex-14, 4-((1R,5S)-3,8-diazabicyclo[3.2.1]octan-3-yl)-8-(5-(difluoromethyl)-1H-indazol-4-yl)-2-(((2R,7aS)-2-fluorotetrahydro-1H-pyrrolizin-7a(5H)-yl)methoxy)pyrido[4′,3′:4,5]thieno [2,3-d]pyrimidine] | > 5000 | > 5000 | 110 | > 5000 |  |  |  |  |  |  |  |  | 
2 | Cc1cc2[nH]ncc2c(-c2nccc3c2sc2nc(OC[C@@]45CCCN4C[C@H](F)C5)nc(N4C[C@H]5CC[C@@H](C4)N5)c23)c1C(F)(F)F [Ex-12, 4-((1R,5S)-3,8-diazabicyclo[3.2.1]octan-3-yl)-2-(((2R,7aS)-2-fluorotetrahydro-1H-pyrrolizin-7a(5H)-yl)methoxy)-8-(6-methyl-5-(trifluoromethyl)-1H-indazol-4-yl)pyrido[4′,3′:4,5]thieno[2,3-d]pyrimidine] |  |  |  |  | 6.41 | 5810 | 589 | 2070 | 723 | > 11100 | > 11100 | 88.9 | 200
